# No end group written: not given here.
# System: peptide-pulsed T2 (HLA-A*02:01) cells
# Experiment: 4 h 51Cr-release assay with peptide titrations on T2 cells (peptide avidity, AAS vs WT recognition)
# Format: cell-based, human
# Settings: peptide presented on T2 cells
# Experimental: ^51Cr release assays to measure specific lysis have been described previously (Carreno, B. M., et al., Immunol. Cell Biol., 87: 167-177, 2009; Linette, G. P. et al., Clin. Cancer Res. 11, 7692-7699, 2005). Melanoma cell lines DM6 (HLAA2+ gp100+) and A375 (HLA-A2+gp100−) were labeled with 25 μCi ^51Cr for 1 hour, washed, and tested as targets in a standard 4-hour assay. Effectors were generated using PBMCs collected after D3 and cultured for 12 days in the presence of peptide (40 μg/ml) and IL2 (50 U/ml every other day). Vaccine-induced antigen-specific T cells were characterized using HLAA*0201/peptide dextramers (Immudex). To determine the avidity (effective concentration at 50% maximal lysis) of vaccine-induced T cells for antigen, T2 cells were pulsed with titrated G209-2M or G280-9V peptide concentrations for 1 hour in serum-free media followed by 51Cr (25 μCi) labeling for 1 hour, washed twice, and tested using vaccine-induced gp100-specific T cells in a standard 4-hour assay.
# For functional characterization, neoantigen-specific T cell lines were generated using autologous mDC and antigen loaded artificial antigen presenting cells at a ratio of 1:1 as previously described (Carreno, B. M., et al., J. Immunol., 188, 5839-5849, 2012). […] For production of cytokines, neoantigen-specific T cells were restimulated using artificial antigen presenting cells in the presence or absence of peptide, supernatants collected at 24 h and cytokine produced determined using MILLIPLEX® MAP Human Cytokine Panel I (EMD Millipore).
# To examine cross-reactivity, T2 cells were pulsed with MUT or WT peptide at the indicated concentrations, labeled with ^51CR-chromium and used as target in a cytotoxic assay. Vaccine-induced T cells were incubated with peptide-pulsed T2 cells and ^51Cr-Chromium release measured at 4 h. […]
# FIG. 34 illustrates that neoantigen-specific T cells recognition of AAS (closed circles) and WT (open circles) peptides was determined in a standard 4 h ^51Cr-release assay using peptide titrations on T2 (HLAA*02:01) cells. […]
Sequence,T cell discrimination between mutated (AAS) and wild-type peptide,T cell discrimination between mutated (AAS) and wild-type peptide (listed as OR8B3),T cell discrimination between mutated (AAS) and wild-type peptide (listed as OR8B3 T190I)
KLMNIQQKL,can discriminate between peptide sequence containing single an changes,,
QLSCISTYV,,cannot discriminate between MUT and WT sequences,could not discriminate between AAS and wild-type (WT) peptide
